We go through eleven compounds from patent publication US9828385B2, “Spiro-oxazolones” (Hoffmann-La Roche Inc., priority 2014, dated 2017).

The target of this test is T1, human V1a receptor (Homo sapiens, UniProt P37288).
T1 construct: expressed in transfected cells; host or cells: HEK293 cells, transiently transfected; cell membranes
T1 sequence (P37288 whole entry): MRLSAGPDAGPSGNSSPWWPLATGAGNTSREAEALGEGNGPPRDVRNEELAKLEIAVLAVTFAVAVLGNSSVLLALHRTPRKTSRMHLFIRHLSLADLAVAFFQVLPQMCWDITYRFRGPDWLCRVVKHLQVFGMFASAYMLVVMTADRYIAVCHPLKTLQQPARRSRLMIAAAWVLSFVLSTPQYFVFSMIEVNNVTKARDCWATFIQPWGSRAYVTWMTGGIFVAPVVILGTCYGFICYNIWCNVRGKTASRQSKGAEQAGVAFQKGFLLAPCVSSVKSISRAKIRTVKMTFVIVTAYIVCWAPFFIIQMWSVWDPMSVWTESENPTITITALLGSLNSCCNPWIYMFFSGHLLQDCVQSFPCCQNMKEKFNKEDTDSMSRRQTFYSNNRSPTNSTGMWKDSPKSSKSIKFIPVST
The experiment in a line: human V1a receptor binding studies (3H-Vasopressin, SPA beads). To be noted: membranes of HEK293 cells transiently transfected with human V1a receptor, Ki by Cheng-Prussoff from IC50, read-out: pKi hV1a (converted). In outline: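 Membranes from transiently transfected HEK293 cells expressing cloned human V1a receptor, on yttrium silicate SPA beads, competed against 4 nM 3H-vasopressin (added stock concentration) in Tris buffer with NaCl, KCl, CaCl2, MgCl2 for 1 h at room temperature. Nonspecific binding with cold vasopressin; IC50 by nonlinear fit, Ki via Cheng-Prusoff.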
Turning to `CC(C)(C)OC(=O)N1Cc2ccccc2CC2(C1)OC(N1CCC3(CC1)OCc1ccccc13)=NC2=O` (centres unmarked) [Example 137, tert-Butyl 4′-oxo-2′-(1′H,3H-spiro[2-benzofuran-1,4′-piperidin]-1′-yl)-1,5-dihydro-4′H-spiro[2-benzazepine-4,5′-[1,3]oxazole]-2(3H)-carboxylate], the Ki is 1.58 nM.

For `O=C1N=C(N2CCC3(CC2)OCc2ccccc23)OC12CNCc1ccccc1C2` (centres unmarked) [Example 138, 2′-(1′H,3H-Spiro[2-benzofuran-1,4′-piperidin]-1′-yl)-1,2,3,5-tetrahydro-4′H-spiro[2-benzazepine-4,5′-[1,3]oxazol]-4′-one], the Ki is 6.31 nM.

In the case of `CN1Cc2ccccc2CC2(C1)OC(N1CCC3(CC1)OCc1ccccc13)=NC2=O` (centres unmarked) [Example 139, 2-Methyl-2′-(1′H,3H-spiro[2-benzofuran-1,4′-piperidin]-1′-yl)-1,2,3,5-tetrahydro-4′H-spiro[2-benzazepine-4,5′-[1,3]oxazol]-4′-one], the Ki was 1.26 nM.

As for `O=C1N=C(N2CCC3(CC2)OCc2ccccc23)OC12CC1CCCCCC1C2` (centres unmarked) [Example 140, 2′-(1′H,3H-Spiro[2-benzofuran-1,4′-piperidin]-1′-yl)-3,3a,4,5,6,7,8,8a-octahydro-1H,4′H-spiro[azulene-2,5′-[1,3]oxazol]-4′-one], the Ki is 0.631 nM.

For the compound `O=C1N=C(N2CCC3(CC2)OCc2ccccc23)O[C@]12C[C@H]1CCCC[C@H]1C2` [Example 141, 2′-(1′H,3H-Spiro[2-benzofuran-1,4′-piperidin]-1′-yl)-1,3,3a,4,5,6,7,7a-octahydro-4′H-spiro[indene-2,5′-[1,3]oxazol]-4′-one], the Ki was 0.501 nM.

With `O=C1C=C2CC3(CC2C1)OC(N1CCC2(CC1)OCc1ccccc12)=NC3=O` (centres unmarked) [Example 142, 2-(1′H,3H-Spiro[2-benzofuran-1,4′-piperidin]-1′-yl)-3a′,4′-dihydro-1′H,4H-spiro[1,3-oxazole-5,2′-pentalene]-4,5′(3′H)-dione], the Ki was 158 nM.

Take `O=C1C[C@@H]2CC3(C[C@@H]2C1)OC(N1CCC2(CC1)OCc1ccccc12)=NC3=O` (some centres unmarked) [Example 143, 2-(1′H,3H-Spiro[2-benzofuran-1,4′-piperidin]-1′-yl)-3a′,4′,6′,6a′-tetrahydro-1′H,4H-spiro[1,3-oxazole-5,2′-pentalene]-4,5′(3′H)-dione]: the Ki is 100 nM.

For the compound `O=C1N=C(N2CCC3(CC2)OCc2ccccc23)OC12C[C@H]1COC[C@H]1C2` (some centres unmarked) [Example 144, 2′-(1′H,3H-Spiro[2-benzofuran-1,4′-piperidin]-1′-yl)-3a,4,6,6a-tetrahydro-1H,3H,4′H-spiro[cyclopenta[c]furan-5,5′-[1,3]oxazol]-4′-one], the Ki was 79.4 nM.

Take `O=C1N=C(N2CCC3(CC2)OCc2ccccc23)O[C@]12C[C@H]1CC(F)(F)C[C@H]1C2` [Example 146, 5′,5′-Difluoro-2-(1′H,3H-spiro[2-benzofuran-1,4′-piperidin]-1′-yl)-3′,3a′,4′,5′,6′,6a′-hexahydro-1′H,4H-spiro[1,3-oxazole-5,2′-pentalen]-4-one]: the Ki was 3.98 nM.

As for `O=C1N=C(N2CCC3(CC2)OCc2ccccc23)OC12C[C@@H]1OS(=O)O[C@@H]1C2` (some centres unmarked) [Example 147, 2′-(1′H,3H-Spiro[2-benzofuran-1,4′-piperidin]-1′-yl)-3a,4,6,6a-tetrahydro-4′H-spiro[cyclopenta[d][1,3,2]dioxathiole-5,5′-[1,3]oxazol]-4′-one 2-oxide], the Ki is 158 nM.

In the case of `O=C1N=C(N2CCC3(CC2)c2ccccc2CS3(=O)=O)OC12Cc1ccccc1C2` [Example 150, 2′-(2,2-Dioxido-1′H,3H-spiro[2-benzothiophene-1,4′-piperidin]-1′-yl)-1,3-dihydro-4′H-spiro[indene-2,5′-[1,3]oxazol]-4′-one], the Ki is 0.251 nM.
